Data published in US20180355369A1, “Method for Increasing Plant Stress Tolerance and Seed Dormancy” (The Australian National University, priority 2015, published 2018).
*1 amine or outer side, *2 acyl side, *3 side chain or, on linkers, in order; H or OH if unused. Where a SMILES comes first, the peptide text is derived from it. Bridges are numbered along the chain shown (N, C = ends). Roman numbers before positions name the chains, in order. [ ]: non-standard residue; d: D form. Actinocin(9to1) = Cc1c2oc3c(C)ccc(C(=O)[*:1])c3nc-2c(C(=O)[*:2])c(N)c1=O; NMeV = CN[C@H](C(=O)O)C(C)C; Sar = CNCC(=O)O

Columns and labels:
[1] = system: stomata; assay: Stomatal aperture in epidermal leaf peels; type: cell-based, Arabidopsis; conditions: for stomatal closure response to exogenous PAP with co-treatment: LiCl (SAL1 inhibitor) or ATP (PAP antiporter co-substrate) with PAP; for effect of inhibitor on ABA-induced stomatal closure: epidermal peels treated with ABA plus inhibitor
Protocol: (§1) Five- to six-week-old plants were used to prepare epidermal peels. ABA at a concentration of 20 μM in water was root fed to hydroponically grown plants or sprayed onto leaves using a Studio Series IS-875 with a 0.5 mm nozzle opening (Iwata). We investigated if PAP accumulation in the double mutants could affect the production of NO during ABA-induced stomatal closure by treating epidermal peels with the inhibitor of NO synthase N(G)-methyl-L-arginine (NMA). For the investigation of the effect of different chemicals on stomatal closure, 20 μM ABA (Sigma-Aldrich), 100 mM LiCl, or 1 mM ATP, 1 mM or 100 μM PAP (Sigma-Aldrich) alone or in different combinations were prepared in infiltration buffer (1 mM PIPES KOH pH 6.0, 1 mM Sodium citrate, 1 mM KCl, 15 mM Sucrose) modified from a cordycepin infiltration buffer.
Measurements of stomatal aperture were performed with epidermal strips taken from five- to six-week-old plants. Fully developed leaves were cut and placed with their adaxial side onto cello tape. The vein was removed by razor blade and the abaxial epidermis was subsequently peeled off by using another strip of cello tape. To promote stomatal opening, the peels left adhered to the Scotch (810D Magic Tape, ¾ inch, 3M) were placed in petri dishes filled with stomatal opening solution (10 mM MES, 5 mM KCl, 50 μM CaCl2, pH 6.5) and incubated for 2 h at 22° C. under 150-200 μmol photons m^−2 s^−1 of light. Once the stomata were fully open, strips were maintained in the opening buffer or treated with various compounds according to the experiment. After treatment, photographs of stomata were taken using Leica microscope (Leica Microsystems, Wetzlar, Germany) at 20×. Stomatal aperture was measured using the image-processing software ImageJ. For stomatal aperture measurements, the ratio of stomatal pore width and length was used instead of width as this normalizes the pores of stomata of different size. Small stomata with a stomatal pore length of less than 7.5 μm were discarded. For each data point, 90 stomata were measured in 3 independent experiments. In each experiment, 10 stomata were measured in 3 epidermal strips per sample per treatment.
Measurements of stomatal closure in response to ABA, PAP, cordycepin and ATP treatments were performed on epidermal strips from Arabidopsis and barley plants grown under specific conditions. Plants were grown under high humidity (approximately 80% RH) and 12 h/12 h and 22/20° C. light/dark cycle in a growth chamber. Epidermal peels of newly expanding true leaves of three to four-week old plants. Stomatal apertures were measured in epidermal peels of newly expanded leaves. Peels were taken from the abaxial leaf surface and were fixed to the glass bottom of the experimental chamber after coating the chamber surface with an optically clear and pressure-sensitive silicon adhesive (Factor II, Tucson, USA). The attached epidermal peel is subsequently immersed in an opening buffer (OB: 50 mM KCl, 5 mM MES titrated to pH 6.1 with NaOH) and incubated, at plant growth conditions, for approximately 2 h. Stomatal images were taken using a bright-field microscope capable of 400× magnification for 10 minutes in OB and subsequently in Measuring Buffer [MB: 10 mM KCl, 5 mM MES titrated to pH 6.1 with Ca(OH)2] or PAP or cordycepin or ABA (dissolved in MB) for another 50 min. In total this was a 60 minute time course and images of the epidermal section were taken every 5 minutes using NIS Elements software (Nikon, Japan). Stomata aperture width and length were measured using Image J (NIH, USA). The pore area of each stomate was calculated using these values under the assumption that the area of a stomatal pore was that of an ellipse. Data are expressed as percentage over the control.

[2] = system: guard cells; assay: ROS accumulation in guard cells of epidermal peels; type: cell-based, Arabidopsis; conditions: wild type, ost1-2 and ost1-2 alx8
Protocol: The ABA- and PAP-induced accumulation of ROS in guard cells of epidermal peels was measured using dichlorofluorescein diacetate (H2DCFDA, Invitrogen). After 2 h of incubation in OB, the epidermal peel was incubated with 20 μM dye dissolved in DMSO and MB for 30 min, and then rinsed with MB three times. Epidermal peels were incubated in ABA or PAP dissolved in MB (or MB only as a negative control) for 10 min. Fluorescence images were taken using a Leica inverted confocal microscope controlled by the LAS AF software (Leica Microsystems, Germany). We used the 496-nm excitation line of an argon multiline laser. H2DCFDA fluorescence emission was detected at 505 to 525 nm. Chloroplast fluorescence was detected at 680 to 700 nm in order to separate the autofluorescence of chlorophyll in guard cells. Images were quantified with Image J software (National Institutes of Health, USA). The background signal was measured from the empty region of the similar size and subtracted from the stomata signal to obtain corrected total stomatal fluorescence values. Each stomate was considered to represent a single biological unit and thus fluorescence values were averaged across all stomata at each time point for each treatment. At least three biological replicates were measured for each treatment.

[3] = PAP quantification in leaves after exogenous ABA; type: in vivo, Arabidopsis; conditions: wild type leaves
Protocol: as §1
(§2) Total adenosines were extracted with 0.1 M HCl, derivatization with chloroacetaldehyde and quantified fluorometrically after HPLC fractionation. 3′-phosphoadenosine 5′-phosphate (PAP) quantification was performed by integrating the HPLC peak area and converting these to pmol units using standard curves of 1, 5 and 10 pmol standard.

[4] = PAP accumulation in leaves after petiole feeding; type: in vivo, Arabidopsis; conditions: petiole feeding of PAP for 1 h, alone or co-applied with LiCl or ATP
Protocol: as §1, §2

[5] = Accumulation of PAP analogues in leaves post-spraying; type: in vivo, Arabidopsis thaliana; conditions: foliar spray 100 mM, soil-grown wild type plants; 1 hr, 4 hr, 1 d, 4 d
Protocol: Five week-old soil-grown wild type Arabidopsis plants were sprayed using a Studio Series IS-875 with a 0.5 mm nozzle opening (Iwata). Each plant was sprayed with approximately 100 μl of different PAP analogues (100 mM) or mock buffer (1% DMSO) and then returned to standard growth conditions. 100 mg leaf tissue was harvested and snap-frozen in liquid nitrogen at various timepoints post-spraying (1 hr, 4 hr, 1 d and 4 d). Total adenosines were extracted, derivatized and quantified by HPLC. Identification and quantification of Analogues 8, 12 and 13 were performed by comparison to authentic standards. Triplicate treatments were carried out, and data presented as mean+/−standard deviation.

[6] = target: T1, AtSAL1 (Arabidopsis thaliana, UniProt Q42546); assay: Inhibition of in vitro AtSAL1 activity against PAP; type: biochemical; conditions: against 50 μM PAP, Analogue 12 at 0, 3.35, 13.4 or 50 μM
T1 construct: Ubiquitin fusion partner (pHUE vector) (cleaved yes); made in house; host or cells: Escherichia coli BL21 DE3
T1 sequence (Q42546 1-353): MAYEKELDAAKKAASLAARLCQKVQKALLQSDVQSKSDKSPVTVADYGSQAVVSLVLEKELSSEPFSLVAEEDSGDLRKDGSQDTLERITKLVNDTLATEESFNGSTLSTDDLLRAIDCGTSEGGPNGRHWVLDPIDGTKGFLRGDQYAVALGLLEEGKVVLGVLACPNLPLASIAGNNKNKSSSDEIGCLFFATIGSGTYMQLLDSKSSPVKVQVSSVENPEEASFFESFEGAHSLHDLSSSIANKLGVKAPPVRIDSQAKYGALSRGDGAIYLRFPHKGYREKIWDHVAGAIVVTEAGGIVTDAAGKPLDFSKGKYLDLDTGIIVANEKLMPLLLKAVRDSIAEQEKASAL
Protocol: For estimation of inhibition of AtSAL1 activity by PAP analogue 12, 200 ng of purified recombinant SAL1 protein was incubated in 75 μl 2×activity buffer (200 mM Tris-MES pH 7.5, 2 mM Mg acetate) and Analogue 12 at a concentration of 0, 3.35, 13.4 or 50 μM for 1 hour at room temperature. The samples were then placed on ice, and 75 μl PAP added for a final reaction condition of 100 mM Tris-MES pH 7.5, 1 mM Mg acetate and 50 μM PAP. The reaction was allowed to proceed at 25 degrees Celsius for 5 minutes, then stopped by flash freezing in liquid nitrogen. The AMP formed from degradation of PAP by SAL1 was quantified by derivatization and resolving on HPLC. Duplicate treatments were carried out, and data presented as mean+/−standard error.

CC1=CC(=O)CC(C)(C)C1(O)/C=C/C(C)=C\C(=O)O (stereo not shown) [ABA]
time to ABA-induced stomatal closure ([1]; epidermal peels, FIGS. 5B and 5D): < 10 min
ROS burst in guard cells [2]: ROS burst known to stimulate stomatal closure was observed in response to ABA treatment in wild type
PAP accumulation stimulated by exogenous ABA [3]: stimulates PAP accumulation by four fold

Nc1ncnc2c1ncn2[C@@H]1O[C@H](COP(=O)(O)OP(=O)(O)OP(=O)(O)O)[C@@H](O)[C@H]1O [ATP]
stomatal closure response to exogenous PAP with co-treatment [1]: a stronger, cumulative response was achieved
accumulation of PAP in leaves [4]: significantly enhanced

CCNC(=O)C1OC(n2cnc3c(N)ncnc32)C(O)C1O (stereo not shown) [Analogue 8, 5-(6-amino-9H-purin-9-yl)-N-ethyl-3,4-dihydroxytetrahydro-2-furancarboxamide]
accumulation of PAP analogue in leaf tissue after spraying [5]: showed rapid accumulation of PAP analogues to levels comparable with those for PAP found in leaf tissue in vivo

Nc1ncnc2c1nc(S)n2C1OC(CO)C(O)C1O (stereo not shown) [Analogue 12, 2-(6-amino-8-mercapto-9H-purin-9-yl)-5-(hydroxymethyl) tetrahydro-3,4-furandiol]
inhibition of in vitro SAL1 activity [6]: inhibition of in vitro SAL1 activity
inhibition of in vitro SAL1 activity ([6]; listed as analogue 12): found to inhibit in vitro SAL1 activity
accumulation of PAP analogue in leaf tissue after spraying [5]: showed rapid accumulation of PAP analogues to levels comparable with those for PAP found in leaf tissue in vivo

COC(=O)C1OC(n2cnc3c(N)ncnc32)C(O)C1O (stereo not shown) [Analogue 13, methyl 5-(6-amino-9H-purin-9-yl)-3,4-dihydroxytetrahydro-2-furancarboxylate]
accumulation of PAP analogue in leaf tissue after spraying [5]: showed rapid accumulation of PAP analogues to levels comparable with those for PAP found in leaf tissue in vivo

Nc1ncnc2c1ncn2[C@@H]1O[C@H](CO)C[C@H]1O [Analogue 16, 3′-deoxyadenosine]
stomatal closure in leaf peels ([1]; leaf peels of wild type plants, 1 hr, PAP 100 μM, ABA 100 μM, cordycepin 10 μM): elicited rapid stomatal closure similar to the PAP response

[Cl-].[Li+] [LiCl]
stomatal closure response to exogenous PAP with co-treatment [1]: a stronger, cumulative response was achieved
accumulation of PAP in leaves [4]: significantly enhanced

CNC(=N)NCCC[C@H](N)C(=O)O [NMA, N(G)-methyl-L-arginine]
effect of inhibitor on ABA-induced stomatal closure [1]: reduced ABA-induced stomatal closure in Col-0Ler

Cc1c2oc3c(C)ccc(C(=O)N[C@@H]4C(=O)N[C@H](C(C)C)C(=O)N5CCC[C@H]5C(=O)N(C)CC(=O)N(C)[C@@H](C(C)C)C(=O)O[C@@H]4C)c3nc-2c(C(=O)N[C@@H]2C(=O)N[C@H](C(C)C)C(=O)N3CCC[C@H]3C(=O)N(C)CC(=O)N(C)[C@@H](C(C)C)C(=O)O[C@@H]2C)c(N)c1=O [actinomycin D] (I: T[dV]P[Sar][NMeV] / II: T[dV]P[Sar][NMeV]; ester I:1-I:C, II:1-II:C; linker I:N-II:N via Actinocin(9to1))
effect of inhibitor on ABA-induced stomatal closure [1]: suppressed ABA-mediated closure to a lesser extent in ost1-2 alx8 than in the wild type

B1: Arabidopsis thaliana SAL1, mature recombinant protein (transit peptide excluded) (protein)
chain: T1 sequence (Q42546 1-353)
kcat (enzyme activity against PAP): up to 6-fold decrease in kcat for the oxidized dimeric rSAL1
